Data as given in US10196363B2, “Dihydropyrimidin-2-one compounds and medical use thereof” (JAPAN TOBACCO INC., priority 2014, dated 2019).
pEC50: −log10 of the molar value. Counter-ions that a name gives are not always drawn. Like-named read-outs stand apart in the source and are kept apart here.

Key:
mouse RORγ = target: T1, mouse RORγ (Mus musculus, UniProt P51450); experiment: In vitro assay of inhibitory effect against RORγ transcriptional activity (GAL4-mRORγ LBD luciferase reporter gene assay in CHO cells); type: cell-based; details: for mRORγ luciferase activity, %-of-control: vehicle-control 0.2% DMSO alone = 100%
T1 construct: mouse RORγ, from Ile251 to Lys516; expressed in transfected cells; host or cells: CHO cells (Chinese hamster ovary), transient co-transfection with pG5-Luc
T1 sequence (P51450 251-516): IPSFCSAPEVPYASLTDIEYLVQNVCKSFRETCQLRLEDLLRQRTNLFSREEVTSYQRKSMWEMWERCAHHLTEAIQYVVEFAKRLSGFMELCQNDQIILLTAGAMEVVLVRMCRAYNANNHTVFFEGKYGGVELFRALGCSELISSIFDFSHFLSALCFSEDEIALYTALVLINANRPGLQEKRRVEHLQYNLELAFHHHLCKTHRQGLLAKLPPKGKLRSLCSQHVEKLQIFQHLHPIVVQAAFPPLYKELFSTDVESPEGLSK
Outline: (§1)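 Transcriptional activity of human or mouse RORγ LBD, tethered to the GAL4 DNA-binding domain, is monitored by a GAL4-dependent firefly luciferase reporter in transiently transfected CHO cells. Test articles are incubated for 2 days; values are %-of-control or fitted EC50.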

human RORγ = target: T2, human RORγ (Homo sapiens, UniProt P51449); experiment: In vitro assay of inhibitory effect against RORγ transcriptional activity (GAL4-hRORγ LBD luciferase reporter gene assay in CHO cells); type: cell-based; details: for hRORγ luciferase activity, %-of-control: vehicle-control 0.2% DMSO alone = 100%
T2 construct: human RORγ, from Ser253 to Lys518; expressed in transfected cells; host or cells: CHO cells (Chinese hamster ovary), transient co-transfection with pG5-Luc
T2 sequence (P51449 253-518): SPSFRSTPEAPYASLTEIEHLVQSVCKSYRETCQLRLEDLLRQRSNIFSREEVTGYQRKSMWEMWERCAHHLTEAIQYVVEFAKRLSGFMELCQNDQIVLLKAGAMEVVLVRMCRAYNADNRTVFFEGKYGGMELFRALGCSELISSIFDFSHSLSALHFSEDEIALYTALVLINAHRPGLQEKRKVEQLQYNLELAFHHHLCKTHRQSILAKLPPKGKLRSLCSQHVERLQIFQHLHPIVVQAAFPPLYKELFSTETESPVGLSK
Outline: as §1

[1] = GAL4-mRORγ LBD / pG5-Luc in CHO cells, 2 days incubation
[2] = value in parentheses beside the > EC50 bound
[3] = GAL4-hRORγ LBD / pG5-Luc in CHO cells, 2 days incubation
[4] = GAL4-mRORγ LBD luciferase reporter, CHO cells, read-out: LUC EC50 mRORγ
[5] = GAL4-hRORγ LBD luciferase reporter, CHO cells, read-out: LUC EC50 hRORγ
[6] = value in parentheses beside the EC50 bound

| SMILES | pEC50 (mouse RORγ; [1]) | pEC50 (human RORγ; [3]) | pEC50 (mouse RORγ; [4]) | pEC50 (human RORγ; [5]) | further results |
| --- | --- | --- | --- | --- | --- |
| CC(C)C1=CN(CCCC(=O)O)C(=O)N[C@]1(C)c1ccc(CCC2CCC2)c(Cl)c1 [Example 109] | < 5.10 | < 5.10 | – | – | mRORγ luciferase activity, %-of-control (mouse RORγ; [2]): (67%); hRORγ luciferase activity, %-of-control (human RORγ; [2]): (60%) |
| CC(C)(C)CCc1ccc([C@]2(C)NC(=O)N(CCCC(=O)O)C=C2C2CCCCC2)cc1Cl [Example 32] | 7.34 | 7.59 | – | – | – |
| CC(C)CCOc1c(F)cc([C@]2(C)NC(=O)N(c3ccc(C(=O)O)cc3)C=C2C(C)C)cc1Cl [Example 192] | – | – | 7.96 | 7.77 | – |
| CC(C)CS(=O)(=O)c1ccc([C@]2(C)NC(=O)N(CCC(=O)O)C=C2C(C)C)cc1Cl [Example 219] | – | – | < 4.70 | < 4.70 | mRORγ luciferase activity, %-of-control (mouse RORγ; [6]): (86%); hRORγ luciferase activity, %-of-control (human RORγ; [6]): (88%) |
| CC(C)C1=CN(C23CC(C(=O)O)(C2)C3)C(=O)N[C@@]1(C)c1ccc(CCC(C)(C)C)c(Cl)c1 [Example 186] | 6.94 | 7.04 | – | – | – |
| CC(C)C1=CN(C[C@H]2C[C@H](C(=O)O)C2)C(=O)NC1(C)c1ccc(CCC(C)(C)C)c(Cl)c1 (mixture of isomers) [Example 80] | 7.77 | 7.80 | – | – | – |
| CC(C)(C)CCc1ccc([C@]2(C)NC(=O)N(CCC(=O)O)C=C2C2CC(F)(F)C2)cc1Cl [Example 319] | – | – | 7.85 | 7.89 | – |
| CC(C)C1=CN(CCC(=O)O)C(=O)N[C@@]1(C)c1ccc(C=C2CCC2)c(Cl)c1 [Example 288] | – | – | 6.04 | 5.83 | – |
| CC(C)(C)CCc1ccc(C2(C)NC(=O)N([C@H]3C[C@H](C(=O)O)C3)C=C2C(C)(C)CCCO)cc1Cl (single isomer, unassigned) [Example 180] | 7.30 | 7.49 | – | – | – |
| CC(C)C1=CN(CCC(=O)O)C(=O)N[C@@]1(C)c1ccc(CC[Si](C)(C)C)c(Cl)c1 [Example 158] | 7.64 | 7.52 | – | – | – |
| CC(C)C1=CN(CCC(=O)O)C(=O)N[C@@]1(C)c1ccc(C2CCC(C)(C)CC2)c(Cl)c1 [Example 118] | 7.77 | 7.72 | – | – | – |
| CC(C)C1=CN(CCC(=O)O)C(=O)N[C@@]1(C)c1cc(F)c(/C=C/C(C)(C)C)c(Cl)c1 [Example 189] | 7.66 | 7.52 | – | – | – |
| CC(C)C1=CN(C2CCC(C(=O)O)C2)C(=O)N[C@]1(C)c1ccc(CCC(C)(C)C)c(Cl)c1 (single isomer, unassigned) [Example 63] | < 5.10 | < 5.10 | – | – | mRORγ luciferase activity, %-of-control (mouse RORγ; [2]): (70%); hRORγ luciferase activity, %-of-control (human RORγ; [2]): (51%) |
| CC(C)C1=CN(CCc2ccccc2C(=O)O)C(=O)N[C@@]1(C)c1ccc(CCC(C)(C)C)c(Cl)c1 [Example 83] | 7.37 | 7.40 | – | – | – |
| CC(C)C1=CN(CCC(=O)O)C(=O)N[C@]1(C)c1ccc(C2=CCCCC2)c(Cl)c1 [Example 133] | < 5.10 | < 5.10 | – | – | mRORγ luciferase activity, %-of-control (mouse RORγ; [2]): (88%); hRORγ luciferase activity, %-of-control (human RORγ; [2]): (71%) |
| CC(C)C1=CN(CCC(=O)O)C(=O)N[C@@]1(C)c1ccc(C2CCCCC2)c(Cl)c1 [Example 136] | 7.31 | 7.03 | – | – | – |
| CC(C)C1=CN(CCC(=O)O)C(=O)N[C@]1(C)c1ccc(C2CCCCC2)c(Cl)c1 [Example 135] | < 5.10 | < 5.10 | – | – | mRORγ luciferase activity, %-of-control (mouse RORγ; [2]): (84%); hRORγ luciferase activity, %-of-control (human RORγ; [2]): (90%) |
| COCCC1=CN(CCC(=O)O)C(=O)N[C@@]1(C)c1ccc(CCC(C)(C)C)c(Cl)c1 [Example 211] | – | – | 8.10 | 7.96 | – |
| CC(C)C1=CN(CC(C)(C)CC(=O)O)C(=O)N[C@]1(C)c1ccc(CCC(C)(C)C)c(Cl)c1 [Example 35] | < 5.49 | < 5.49 | – | – | mRORγ luciferase activity, %-of-control (mouse RORγ; [2]): (52%); hRORγ luciferase activity, %-of-control (human RORγ; [2]): (51%) |
| CC(C)C1=CN(CCC(=O)O)C(=O)N[C@@]1(C)c1ccc(C2CC(C)(C)C2)c(Cl)c1 [Example 298] | – | – | 7.74 | 7.66 | – |
| CC(C)(C)COc1ccc([C@]2(C)NC(=O)N(C34CC(C(=O)O)(C3)C4)C=C2C2CC(F)(F)C2)cc1Cl [Example 355] | – | – | 7.28 | 6.95 | – |

| SMILES | pEC50 (mouse RORγ; [1]) | pEC50 (human RORγ; [3]) | pEC50 (mouse RORγ; [4]) | pEC50 (human RORγ; [5]) | further results |
| --- | --- | --- | --- | --- | --- |
| CC(C)(C)CCc1ccc(C2(C)NC(=O)N(C3CCC3)C=C2C(C)(C)CCC(=O)O)cc1Cl (single isomer, unassigned) [Example 184] | 7.66 | 7.96 | – | – | – |
| CC(C)C1=CN(c2ccc(C(=O)O)cn2)C(=O)N[C@@]1(C)c1ccc(CCC(C)(C)C)c(Cl)c1 [Example 281, 6-{(S)-4-[3-Chloro-4-(3,3-dimethyl-butyl)-phenyl]-5-isopropyl-4-methyl-2-oxo-3,4-dihydro-2H-pyrimidin-1-yl}-nicotinic Acid hydrochloride] | – | – | 7.68 | 7.85 | – |
| CC(C)C1=CN(CCC(=O)O)C(=O)N[C@@]1(C)c1ccc(CCC(C)(C)C)c(F)c1 [Example 176] | 7.89 | 7.66 | – | – | – |
| C[C@@]1(c2ccc(CC3CCCCC3)c(Cl)c2)NC(=O)N(CCC(=O)O)C=C1C1CC1 [Example 347] | – | – | 7.46 | 6.96 | – |
| CC(C)C1=CN(CC(=O)O)C(=O)N[C@]1(C)c1ccc(CCC(C)(C)C)c(Cl)c1 [Example 93] | 5.59 | 5.67 | – | – | – |
| CC(C)C1=CN([C@H]2C[C@H](C(=O)O)C2)C(=O)N[C@]1(C)c1cc(Cl)c(CCC(C)(C)C)cc1F [Example 103] | < 5.49 | < 5.49 | – | – | mRORγ luciferase activity, %-of-control (mouse RORγ; [2]): (50%); hRORγ luciferase activity, %-of-control (human RORγ; [2]): (65%) |
| CC(C)C1=CN(c2ccc(C(=O)O)cc2)C(=O)N[C@@]1(C)c1ccc(CCC(C)(C)C)c(C(F)(F)F)c1 [Example 271, 4-{(S)-4-[4-(3,3-Dimethyl-butyl)-3-trifluoromethyl-phenyl]-5-isopropyl-4-methyl-2-oxo-3,4-dihydro-2H-pyrimidin-1-yl}-benzoic Acid] | – | – | 7.33 | 7.37 | – |
| CC(C)C1=CN(CCC2(C(=O)O)CC2)C(=O)N[C@]1(C)c1ccc(CCC(C)(C)C)c(Cl)c1 [Example 71] | 6.12 | 6.30 | – | – | – |
| CC(C)(C)C#Cc1ccc(C2NC(=O)N(CCCC(=O)O)C=C2C(C)(C)C)cc1Cl (racemic) [Example 187] | 7.20 | 6.76 | – | – | – |
| CC(C)C1=CN(CCC(=O)O)C(=O)N[C@@]1(C)c1ccc(CCCC(C)(C)C)c(Cl)c1 [Example 124] | 7.52 | < 6.29 | – | – | hRORγ luciferase activity, %-of-control (human RORγ; [2]): (54%) |
| COCCC1=CN(c2ccc(C(=O)O)c(OC)c2)C(=O)N[C@@]1(C)c1ccc(CC2CCCCC2)c(Cl)c1 [Example 337] | – | – | 7.85 | 7.66 | – |
| COC[C@H]1C[C@H](N2C=C(C(C)(C)CCC(=O)O)[C@](C)(c3ccc(CCC(C)(C)C)c(Cl)c3)NC2=O)C1 [Example 198] | – | – | 7.59 | 7.92 | – |
| CC(C)C1=CN(CCc2ccccc2C(=O)O)C(=O)N[C@]1(C)c1ccc(CCC(C)(C)C)c(Cl)c1 [Example 82] | 6.10 | 6.01 | – | – | – |
| CC(C)C1=CN(CCC(=O)O)C(=O)N[C@@]1(C)c1ccc(C2=CCCC2)c(Cl)c1 [Example 149] | 6.61 | 5.99 | – | – | – |
| COCCC1=CN(C23CCC(C(=O)O)(C2)C3)C(=O)N[C@@]1(C)c1ccc([C@H]2C[C@@H](C(C)(C)C)C2)c(Cl)c1 (single isomer, unassigned) [Example 344] | – | – | 7.92 | 7.89 | – |
| CCC1=CN(CCCC(=O)O)C(=O)N[C@]1(C)c1ccc(CCC(C)(C)C)c(Cl)c1 [Example 68] | 5.76 | 5.91 | – | – | – |
| COC(=O)[C@H]1C[C@H](N2C=C([C@H]3C[C@@H](CO)C3)[C@](C)(c3ccc(CCC(C)(C)C)c(Cl)c3)NC2=O)C1 (single isomer, unassigned) [Example 312] | – | – | 6.27 | 6.61 | – |
| CC(C)C1=CN(c2cc(C(=O)O)nn2C)C(=O)N[C@@]1(C)c1ccc(CCC(C)(C)C)c(Cl)c1 [Example 297] | – | – | 7.21 | 7.36 | – |
| CC(C)C1=CN(CCC(=O)O)C(=O)N[C@@]1(C)c1ccc([C@H]2C[C@@H](CC(C)(C)C)C2)c(Cl)c1 [Example 309] | – | – | 7.15 | < 5.49 | hRORγ luciferase activity, %-of-control (human RORγ; [6]): (63%) |
| CC(C)C1=CN(CCC(=O)O)C(=O)NC1(C)c1ccc(C2=CC(C)(C)CCC2)c(Cl)c1 (single isomer, unassigned) [Example 151] | 7.64 | 7.74 | – | – | – |
| CCCCc1ccc(C2(C)NC(=O)N(CCCC(=O)O)C=C2C(C)C)cc1F (racemic) [Example 70] | 6.88 | 6.60 | – | – | – |
